Measurements: patent US20120022294A1, “Axomadol or a Metabolite Thereof for Use in the Treatment of Irritable Bowel Syndrome” (priority 2010, published 2012)
Structures can show the parent of a compound that is named as a salt. Where two headings read alike, the source gives them in different places.

Assays:
[1] = test system: isolated guinea pig ileum; experiment: twitch contractions (electrically induced) of the isolated guinea pig ileum; conditions: for IC50: Cavia porcellus; for threshold of reduction of electrically induced contractions: concentration-dependent; for % reversal by naloxone: naloxone 10^−6 M added after last application of test compound; for inhibitory effect reversed after addition of naloxone: opioid receptor antagonist naloxone 1 μM; for maximal reduction: twitch reaction remaining as % of pre-value at highest concentration
Protocol: It was investigated whether axomadol and (+)-O-demethyl axomadol are able to modulate gastrointestinal motility.
Male guinea pigs (PBW, Charles River, Kiβlegg, FRG) weighing 250-350 g were used for the study. The animals were kept under standard housing conditions: light/dark rhythm (06.00-18.00 h light, 18.00-6.00 h dark); room temperature 22±2° C., relative air humidity 55±5%; 15 air changes per hour, air movement <0.2 m/sec. The animals were given water and an exclusive diet of “Herilan RM 204” (Eggersmann Company, Rinteln/FRG) ad libitum. Before experimental preparation they were kept in groups of up to 5 animals in type IV Makrolon cages (Ebeco Company, Castrop-Rauxel, FRG). There were at least 4 days between delivery and testing.
Axomadol hydrochloride and (+)-O-demethyl axomadol hydrochloride were dissolved in aqua bidest. Final concentrations in the organ bath ranged from 10^−7 to 3.2·10^−4 M and from 10^−8 to 3.2·10^−5 M for axomadol hydrochloride and (+)-O-demethyl axomadol hydrochloride respectively (cumulative drug application). Naloxone (10^−6 M) was used as opioid antagonist.
A four-compartment organ bath (Dept. Biotechnology, Grunenthal GmbH) consisting of 20 ml acrylic glass compartments, organ supports and force transducers (F10 force transducers, Type 375, HSE, FRG) was used for the measurement of isometric contractions. The organ bath was filled and emptied by means of a semi-automatic dosing arrangement. All experiments were performed at […]. The nutrient solution was gassed with carbogen (95% O2/5% CO2)) both in the nutrient storage chamber and in the organ bath starting 30 min before the beginning and throughout the experiment.
The nutrient solution had the following composition:
Parameter: contraction force [g]
Guinea pigs were killed in CO2-atmosphere and the ileum was dissected free from adhering tissue, removed and suspended in the organ bath. After an incubation period of at least 30 min, isometric contractions (twitch reactions) were elicited by transmural stimulation pulses (duration 1 ms, amplitude 180 mA at 0.03 Hz; stimulator A310, WPI, FRG). A pre-tension of 1 g was applied to the preparations and constantly readjusted during the equilibration period (at least 30 minutes) while the nutrient was changed twice.
After having registered the pre-value, test compounds were added to the organ bath in cumulative concentration steps as indicated. The exposure time for each concentration was 6 minutes. After the last application of the test compound, the opioid-antagonist naloxone (10^−6 M) was added without previous wash out of the test compound.
1.5 Evaluation Data was calculated as the mean electrically stimulated contraction force during a period of 4 to 6 minutes after compound application and expressed as percentage of the pre-value. The mean contraction force during a period of 2 minutes before compound application was taken as pre-value. All results were expressed as means±s.e.m. of ≧4 single experiments. For determination of IC50 values, regression lines (y=f log x) were constructed and IC50 values with s.e.m. were calculated using a computer-assisted regression analysis program (Grünenthal GmbH). The reversal of the test compound's activity by the antagonist was determined according to the following equation:
with max. effect being: 100%−% reduction of pre-value of twitch reaction at highest dose of test compound.

[2] = test system: visceral hyperalgesia induced by rectal administration of mustard oil in mice; experiment: visceral hyperalgesia / mustard oil colitis in mice; format: in vivo
Description: The effects of axomadol hydrochloride on visceral hyperalgesia were studied, which was induced by rectal administration of mustard oil in mice (according to Laird J M, Martinez-Caro L, Garcia-Nicas E, Cervero F. (2001) A new model of visceral pain and referred hyperalgesia in the mouse. Pain 92: 335-42). The typical visceral pain behaviour was quantified in three parameters: During the first minutes after mustard oil administration spontaneous visceral pain behaviour occurs. Following this period of spontaneous pain, referred allodynia and hyperalgesia can be quantified by means of von Frey filaments of different strength stimulating the abdomen of the mice.
Male NMRI mice (28-38 g body weight) from a commercial breeder (Iffa Credo, France) were used. The animals were housed under standardized conditions: light/dark cycle (06.00-18.00 h light, 18.00-06.00 h dark), room temperature 20-24° C., relative air humidity 35-70%, 15 air changes per hour, air movement <0.2 m/sec, tap water and standard diet ad libitum, macrolon type 4 cages with maximally 30 animals per cage. There were at least 5 days between delivery and start of the experiment.
Axomadol hydrochloride was dissolved in vehicle solution and injected intra-venously.
Doses: 0.464; 1.0; 2.15; 4.64; 10.0 mg/kg i.v. Administration volume: 10 ml/kg Vehicle solution: 0.9% NaCl solution (Fresenius, Bad Homburg, FRG) Mustard oil was dissolved in vehicle solution and administered intra-rectally Dose: 50 μl of a 3.5 Vol.−% solution per animal Vehicle solution: PEG 200
2.3.1 Induction of Colitis Animals were habituated to the test conditions for 20-30 min and stimulated with von Frey filaments onto the abdominal wall. 10 stimulations with von Frey filaments of 1, 4, 8, 16, and 32 mN were applied in ascending order (i.e. 10×1 mN, 10×4 mN, etc.). Animals with more than 25 positive reactions during this phase were excluded. Vaseline was applied in the perianal area to avoid the stimulation of somatic areas with the irritant chemical. Colitis is induced by rectal administration of 50 μl mustard oil (3.5%). Control animals are treated with vehicle (50 μl PEG200).
Axomadol hydrochloride or vehicle was given intravenously (i.v.) 5 min before mustard oil. Seven animals were tested per group. The following parameters were counted:
2-12 min after mustard oil: • 1. Spontaneous pain score: counting and scoring of visceral pain behaviours (Score 1-2, 1=licking of abdominal wall, 2=stretching, squashing, mounting, backward-movement or contraction of the flank muscles). 20-40 min after mustard oil • 2. […]
Data were analysed by means of two-factor analysis of variance (ANOVA) with repeated measures. Significance of treatment-, time- or treatment x time interaction effects was analyzed by means of Wilks' Lambda statistics. […]

[3] = isolated guinea pig ileum, mean ± s.e.m., read-out: IC50 value, reduction of electrically induced contractions
[4] = twitch contractions of the guinea pig ileum, cumulative application, read-out: IC50

| SMILES | IC50 [1, 3] [µM] | IC50 [1, 4] [µM] | twitch reactions, reduction to % of pre-value ([1]; increasing concentrations up to 320 μM) | threshold of reduction of electrically induced contractions ([1]; isolated guinea pig ileum) | % reversal by naloxone [1] [%] | inhibitory effect reversed after addition of naloxone [1] [%] | maximal reduction [1] [% pre-value] | inhibition of all three visceral pain parameters ([2]; 0.464, 1.0, 2.15, 4.64 and 10.0 mg/kg i.v.) | ED50 (95% confidence intervals), referred allodynia ([2]; i.v. 5 min before mustard oil, 1 mN von Frey filament, 20-40 min after mustard oil) | ED50 (95% confidence intervals), spontaneous visceral pain behaviour ([2]; i.v. 5 min before mustard oil, 2-12 min after mustard oil) | ED50 (95% confidence intervals), referred hyperalgesia ([2]; i.v. 5 min before mustard oil, 16 mN von Frey filament, 20-40 min after mustard oil) | twitch reactions, reduction to % of pre-value ([1]; increasing concentrations up to 32 μM) |
| --- | --- | --- | --- | --- | --- | --- | --- | --- | --- | --- | --- | --- |
| COc1cccc([C@@]2(O)C[C@H](O)CC[C@@H]2CN(C)C)c1 (racemic) [axomadol hydrochloride, (1RS,3RS,6RS)-6-dimethylaminomethyl-1-(3-methoxyphenyl)-cyclohexane-1,3-diol] | 39.2 ± 2.8 | 39.2 ± 2.8 | 32.1 % of pre-value | around 10 μM | 83.4 | 83.4 | 32.1 | dose dependent and significant inhibition | 6.13 (5.56-6.60-4.75) mg/kg i.v. | 2.62 (1.79-4.05) mg/kg i.v. | 2.72 (1.58-5.46) mg/kg i.v. |  |
| CN(C)CC1CCC(O)CC1(O)c1cccc(O)c1 (single isomer, unassigned; (+)) [(+)-O-demethyl axomadol hydrochloride, 6-dimethylaminomethyl-1-(3-hydroxyphenyl)-cyclohexane-1,3-diol] | 0.43 ± 0.09 | 0.43 ± 0.09 |  | around 0.032 μM | 69.1 | 69.1 | 16.6 |  |  |  |  | 16.6±3 % of pre-value |
